Source: US20250002507A1, “7,8-DIHYDRO-5H-1,6-NAPHTHYRIDINE DERIVATIVES AS POSITIVE ALLOSTERIC MODULATORS OF THE MUSCARINIC ACETYLCHOLINE RECEPTOR M4 FOR TREATING NEUROLOGICAL AND PSYCHIATRIC DISORDERS” (Vanderbilt University, priority 2021, published 2025)

Biological target: T1, Human M4 (Homo sapiens, UniProt P08173)
T1 construct: expressed in transfected cells
T1 sequence (P08173 1-479): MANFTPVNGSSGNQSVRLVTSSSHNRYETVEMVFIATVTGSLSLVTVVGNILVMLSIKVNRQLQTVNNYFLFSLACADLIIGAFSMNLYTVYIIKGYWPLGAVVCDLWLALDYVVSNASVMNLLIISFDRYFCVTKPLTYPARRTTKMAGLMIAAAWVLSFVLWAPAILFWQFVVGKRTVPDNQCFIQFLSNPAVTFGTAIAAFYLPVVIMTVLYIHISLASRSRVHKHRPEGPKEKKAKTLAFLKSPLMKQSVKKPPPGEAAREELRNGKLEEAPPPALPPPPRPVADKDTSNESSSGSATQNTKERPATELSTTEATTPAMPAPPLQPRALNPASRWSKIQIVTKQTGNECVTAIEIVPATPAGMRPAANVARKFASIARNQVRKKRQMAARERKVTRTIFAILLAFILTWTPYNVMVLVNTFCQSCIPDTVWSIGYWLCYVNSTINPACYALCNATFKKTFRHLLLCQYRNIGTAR
Experiment: mAChR M4 cell-based functional assay (calcium flux, potentiation of EC20 acetylcholine response), hM4-Gqi5 CHO-K1 cells
Conditions: Table 4; for Emax at 30 µM: CHO-K1, Human M4, % ACh maximum at 30 μM, read-out: Emax (% ACh maximum at 30 μM); for EC50: potentiation of EC20 acetylcholine response, calcium flux, CHO-K1 cells, read-out: Human M4 EC50
Method in brief: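 CHO-K1 cells stably expressing human M4 with chimeric Gqi5, loaded with Fluo-4 AM 50 min at 37 °C; calcium flux read by FDSS. 11-point 1:3 compound curves added, then EC20 acetylcholine at 144 s; potentiation of the EC20 response fitted by four-parameter logistic to give EC50 and Emax.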

Compound	Emax at 30 µM [%]	EC50 [µM]
Cc1c(N2CCc3ncc(Oc4cccc(F)c4F)cc3C2)nn2cnnc2c1C [Compound 304, 3-(2,3-difluorophenoxy)-6-(7,8-dimethyl-[1,2,4]triazolo[4,3-b]pyridazin-6-yl)-5,6,7,8-tetrahydro-1,6-naphthyridine]	93	0.348
Cc1c(N2CCc3ncc(OCC(F)(F)F)cc3C2)nn2cnnc2c1C [Compound 305, 6-(7,8-dimethyl-[1,2,4]triazolo[4,3-b]pyridazin-6-yl)-3-(2,2,2-trifluoroethoxy)-5,6,7,8-tetrahydro-1,6-naphthyridine]	112	1.87
Cc1c(N2CCc3ncc(N4CC(C)Cn5nccc54)cc3C2)nn2c(C(F)(F)F)nnc2c1C (stereo not shown) [Compound 306, 6-(7,8-dimethyl-3-(trifluoromethyl)-[1,2,4]triazolo[4,3-b]pyridazin-6-yl)-3-(6-methyl-6,7-dihydropyrazolo[1,5-a]pyrimidin-4(5H)-yl)-5,6,7,8-tetrahydro-1,6-naphthyridine]	102	0.143
Cc1c(N2Cc3cc(C(F)(F)F)cnc3CC2C)nn2cnnc2c1C (stereo not shown) [Compound 307, 6-(7,8-Dimethyl-[1,2,4]triazolo[4,3-b]pyridazin-6-yl)-7-methyl-3-(trifluoromethyl)-5,6,7,8-tetrahydro-1,6-naphthyridine]	96	0.299
Cc1c(N2CCc3ncc(Cc4ccccc4F)cc3C2)nn2cnnc2c1C [Compound 308, 6-(7,8-dimethyl-[1,2,4]triazolo[4,3-b]pyridazin-6-yl)-3-(2-fluorobenzyl)-5,6,7,8-tetrahydro-1,6-naphthyridine]	91	0.11
Cc1c(N2CCc3ncc(Cc4ccccc4F)cc3C2)nn2c(C(F)(F)F)nnc2c1C [Compound 309, 6-(7,8-dimethyl-3-(trifluoromethyl)-[1,2,4]triazolo[4,3-b]pyridazin-6-yl)-3-(2-fluorobenzyl)-5,6,7,8-tetrahydro-1,6-naphthyridine]	83	1.41
Cc1ccc(Oc2cnc3c(c2)CN(c2nn4cnnc4cc2C)CC3)c(F)c1 [Compound 310, 3-(2-fluoro-4-methylphenoxy)-6-(7-methyl-[1,2,4]triazolo[4,3-b]pyridazin-6-yl)-5,6,7,8-tetrahydro-1,6-naphthyridine]	81	0.182
Cc1c(N2CCc3ncc(Cc4cccc(F)c4)cc3C2)nn2cnnc2c1C [Compound 311, 6-(7,8-dimethyl-[1,2,4]triazolo[4,3-b]pyridazin-6-yl)-3-(3-fluorobenzyl)-5,6,7,8-tetrahydro-1,6-naphthyridine]	81	0.246
Cc1c(N2CCc3ncc(Cc4cccc(F)c4)cc3C2)nn2c(C(F)(F)F)nnc2c1C [Compound 312, 6-(7,8-dimethyl-3-(trifluoromethyl)-[1,2,4]triazolo[4,3-b]pyridazin-6-yl)-3-(3-fluorobenzyl)-5,6,7,8-tetrahydro-1,6-naphthyridine]	60	1.8
Cc1c(N2CCc3ncc(N4CCO[C@H](C)C4)cc3C2)nn2c(C(F)(F)F)nnc2c1C [Compound 313, (R)-4-(6-(7,8-dimethyl-3-(trifluoromethyl)-[1,2,4]triazolo[4,3-b]pyridazin-6-yl)-5,6,7,8-tetrahydro-1,6-naphthyridin-3-yl)-2-methylmorpholine]	82	0.296
Cc1c(N2CCc3ncc(N4CCOC[C@H]4C)cc3C2)nn2c(C(F)(F)F)nnc2c1C [Compound 314, (R)-4-(6-(7,8-dimethyl-3-(trifluoromethyl)-[1,2,4]triazolo[4,3-b]pyridazin-6-yl)-5,6,7,8-tetrahydro-1,6-naphthyridin-3-yl)-3-methylmorpholine]	98	0.321
Cc1c(N2CCc3ncc(N4CCOC[C@@H]4C)cc3C2)nn2c(C(F)(F)F)nnc2c1C [Compound 315, (S)-4-(6-(7,8-dimethyl-3-(trifluoromethyl)-[1,2,4]triazolo[4,3-b]pyridazin-6-yl)-5,6,7,8-tetrahydro-1,6-naphthyridin-3-yl)-3-methylmorpholine]	85	1.9
Cc1c(N2CCc3ncc(N4CC5CC4CO5)cc3C2)nn2c(C(F)(F)F)nnc2c1C (stereo not shown) [Compound 316, 5-(6-(7,8-dimethyl-3-(trifluoromethyl)-[1,2,4]triazolo[4,3-b]pyridazin-6-yl)-5,6,7,8-tetrahydro-1,6-naphthyridin-3-yl)-2-oxa-5-azabicyclo[2.2.1]heptane]	78	0.573
COC1CCN(c2cnc3c(c2)CN(c2nn4c(C(F)(F)F)nnc4c(C)c2C)CC3)CC1 [Compound 317, 6-(7,8-dimethyl-3-(trifluoromethyl)-[1,2,4]triazolo[4,3-b]pyridazin-6-yl)-3-(4-methoxypiperidin-1-yl)-5,6,7,8-tetrahydro-1,6-naphthyridine]	84	1.4
Cc1c(N2CCc3ncc(N4C[C@@H](C)O[C@@H](C)C4)cc3C2)nn2c(C(F)(F)F)nnc2c1C [Compound 318, (2R,6S)-4-(6-(7,8-dimethyl-3-(trifluoromethyl)-[1,2,4]triazolo[4,3-b]pyridazin-6-yl)-5,6,7,8-tetrahydro-1,6-naphthyridin-3-yl)-2,6-dimethylmorpholine]	80	2.15
Cc1cc2nnc(C(F)(F)F)n2nc1N1CCc2ncc(C(F)(F)F)cc2C1 [Compound 319, 6-(7-methyl-3-(trifluoromethyl)-[1,2,4]triazolo[4,3-b]pyridazin-6-yl)-3-(trifluoromethyl)-5,6,7,8-tetrahydro-1,6-naphthyridine]	96	0.794
Cc1cc2n(n1)CCCN2c1cnc2c(c1)CN(c1nn3c(C(F)(F)F)nnc3c(C)c1C)CC2 [Compound 320, 6-(7,8-dimethyl-3-(trifluoromethyl)-[1,2,4]triazolo[4,3-b]pyridazin-6-yl)-3-(2-methyl-6,7-dihydropyrazolo[1,5-a]pyrimidin-4(5H)-yl)-5,6,7,8-tetrahydro-1,6-naphthyridine]	76	0.121
Cc1c(N2CCc3ncc(C(F)(F)F)cc3C2)nn2c(C(F)(F)F)nnc2c1C [Compound 321, 6-(7,8-dimethyl-3-(trifluoromethyl)-[1,2,4]triazolo[4,3-b]pyridazin-6-yl)-3-(trifluoromethyl)-5,6,7,8-tetrahydro-1,6-naphthyridine]	72	0.27
Cc1c(N2CCc3ncc(N4CCO[C@H](c5ccccc5)C4)cc3C2)nn2c(C(F)(F)F)nnc2c1C [Compound 322, (R)-4-(6-(7,8-dimethyl-3-(trifluoromethyl)-[1,2,4]triazolo[4,3-b]pyridazin-6-yl)-5,6,7,8-tetrahydro-1,6-naphthyridin-3-yl)-2-phenylmorpholine]	96	3.14
Cc1c(N2CCc3ncc(N4CCO[C@@H](c5ccccc5)C4)cc3C2)nn2c(C(F)(F)F)nnc2c1C [Compound 323, (S)-4-(6-(7,8-dimethyl-3-(trifluoromethyl)-[1,2,4]triazolo[4,3-b]pyridazin-6-yl)-5,6,7,8-tetrahydro-1,6-naphthyridin-3-yl)-2-phenylmorpholine]	46	8.91
